The values below come from article PMC7400577 (Scientific Reports, 2020).

Residue numbers refer to the chain shown, from its start. “And” between values parts separate entries of the source, which are not always exact repeats. Equal entries are not always repeated. Where two headings read alike, the source gives them in different places.

For one assay, the target named is T1, hBGT1 E52A (Homo sapiens, UniProt P48065, E52A).
T1 sequence (P48065 1-614 E52A): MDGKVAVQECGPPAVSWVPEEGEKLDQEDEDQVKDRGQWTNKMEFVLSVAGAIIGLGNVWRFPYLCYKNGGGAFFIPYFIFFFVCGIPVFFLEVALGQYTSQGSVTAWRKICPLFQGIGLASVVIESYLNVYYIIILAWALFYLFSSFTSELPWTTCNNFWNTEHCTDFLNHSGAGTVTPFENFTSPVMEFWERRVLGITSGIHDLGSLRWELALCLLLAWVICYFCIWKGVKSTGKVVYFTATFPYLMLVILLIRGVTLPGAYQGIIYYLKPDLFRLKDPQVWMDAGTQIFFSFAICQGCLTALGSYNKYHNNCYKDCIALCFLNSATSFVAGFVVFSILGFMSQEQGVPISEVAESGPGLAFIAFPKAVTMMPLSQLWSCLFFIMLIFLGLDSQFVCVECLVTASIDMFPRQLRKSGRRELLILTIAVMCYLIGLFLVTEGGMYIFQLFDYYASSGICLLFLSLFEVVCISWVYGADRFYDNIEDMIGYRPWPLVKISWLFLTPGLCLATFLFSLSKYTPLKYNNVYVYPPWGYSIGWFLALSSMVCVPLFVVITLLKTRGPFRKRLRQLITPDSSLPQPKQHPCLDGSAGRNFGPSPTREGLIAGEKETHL
Description: cell-based. Particulars: 30 nM [3H]GABA, tsA201 cells, transient expression.

A further assay addresses T2, hGAT2 (Homo sapiens, UniProt Q9NSD5).
T2 construct: expressed in transfected cells
T2 sequence (Q9NSD5 1-602): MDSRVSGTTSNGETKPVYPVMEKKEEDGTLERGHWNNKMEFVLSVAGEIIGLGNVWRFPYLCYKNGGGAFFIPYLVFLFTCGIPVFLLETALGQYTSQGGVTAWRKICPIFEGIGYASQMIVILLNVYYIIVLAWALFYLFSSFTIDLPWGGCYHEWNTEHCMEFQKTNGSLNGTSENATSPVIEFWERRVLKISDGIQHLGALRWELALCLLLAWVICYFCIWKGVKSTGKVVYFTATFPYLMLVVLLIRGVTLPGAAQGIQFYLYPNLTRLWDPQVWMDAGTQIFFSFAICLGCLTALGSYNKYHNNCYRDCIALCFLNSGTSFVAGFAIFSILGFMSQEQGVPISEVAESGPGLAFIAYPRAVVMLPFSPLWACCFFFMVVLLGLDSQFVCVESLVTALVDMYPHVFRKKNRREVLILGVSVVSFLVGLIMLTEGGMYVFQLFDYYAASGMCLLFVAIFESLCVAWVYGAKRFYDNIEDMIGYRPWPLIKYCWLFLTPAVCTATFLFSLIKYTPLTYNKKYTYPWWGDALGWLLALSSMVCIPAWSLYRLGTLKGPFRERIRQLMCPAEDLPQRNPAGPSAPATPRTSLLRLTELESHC
The assay is described as follows: [3H]GABA uptake inhibition at hGAT2 stably expressed in CHO Flp-In cells. The assay is classed as cell-based. The note with it: 30 nM [3H]GABA, 3 min, CHO Flp-In cells stably expressing hGAT2; read-out: IC50 hGAT2. As for the experimental part: (§1) CHO Flp-In and tsA201 cells were cultured at 37 °C in a humidified atmosphere of […] and 5% CO2. As previously described[38],[63], CHO Flp-In cells stably expressing the hGATs were cultured in Ham’s F12 Nutrient Mix supplemented with 10% FBS, 1% P/S and plasmocin (5 µg/mL) under the selection pressure of hygromycin B (200 µg/mL). DMEM with GlutaMAX-I supplemented with 10% FBS and 1% P/S was used as growth medium for the tsA201 cells, which were transfected with DNA constructs using PolyFect according to the manufacturer’s specifications (Qiagen, West Sussex, UK), but with half of the recommended reagent volumes.
(§2) Uptake assays were performed in PDL-coated white 96-well polystyrene cell culture microplates (PerkinElmer, Boston, MA, USA) as previously described[38],[63]. […] Assay buffer was HBSS supplemented with 20 mM HEPES, 1 mM CaCl2 and 1 mM MgCl2, pH 7.4. […] After termination, scintillation liquid (MicroScint-20, PerkinElmer) was added and the radioactivity measured in a TopCount NXT Microplate Scintillation Counter (PerkinElmer).
(§3) Data analysis and statistical evaluation were performed in GraphPad Prism 7.02 (GraphPad Software, San Diego, CA, USA). Concentration-uptake inhibition curves, generated from the radioligand-based uptake assays, were fitted by non-linear regression, using the equation for sigmoidal concentration–response with variable slope: Y = Bottom + (Top–Bottom)/(1 + 10^((logIC50 − X) × HillSlope)), where Y is the response, X is the logarithm of the concentration, Top and Bottom are the plateaus in same units as Y, logIC50 is the concentration giving a response halfway between Bottom and Top, and the HillSlope is the steepness of the curve. For the substrate concentration–response curves generated from the FMP assay, the same equation was used but with logEC50 instead for logIC50. Unless otherwise stated, data are presented as means ± S.E.M. of at least three independent pooled experiments performed in triplicates.

A further assay concerns the target T3, hBGT1 (Homo sapiens, UniProt P48065).
T3 construct: expressed in transfected cells
T3 sequence (P48065 1-614): T1 sequence (P48065 1-614 E52A) with A52E
The assay is classed as cell-based. The note with it: for IC50: 30 nM [3H]GABA, 3 min, CHO Flp-In cells stably expressing hBGT1; for subtype-selectivity for hBGT1 over the other hGATs: estimated from [3H]GABA uptake IC50 values; for subtype-selectivity for hBGT1 over the other hGATs / decrease of hBGT1 inhibitory potency compared to ATPCA: CHO Flp-In cells; for decrease of hBGT1 inhibitory potency compared to ATPCA: [3H]GABA uptake. As for the experimental part:
as §1, §2, §3

The target in the next assay is T4, hBGT1 wt (Homo sapiens, UniProt P48065).
T4 construct: expressed in transfected cells; host or cells: tsA201 cells, transient (PolyFect), pcDNA5/FRT vector
T4 sequence (P48065 1-614): T1 sequence (P48065 1-614 E52A) with A52E
The assay is described as follows: [3H]GABA uptake inhibition at wt hBGT1 transiently expressed in tsA201 cells. The class given is cell-based. The note with it: 30 nM [3H]GABA, tsA201 cells transiently expressing wt hBGT1.

Setting [1] is: read-out: pIC50 ± S.E.M. hBGT1 (converted).
Where [2] appears, read: read-out: pIC50 ± S.E.M. BGT1 wt (converted).

On to `C[C@@H]1N=C(N)NC[C@@H]1C(=O)O` (single isomer, unassigned) [l-15a], for which the IC50 against hBGT1 E52A (pIC50 ± S.E.M. BGT1 E52A) is 37.2 µM; at hGAT2, above 1000 µM; at hBGT1 (read-out: IC50 hBGT1), below 100 µM; at hBGT1 (setting [1]) it was 33.9 µM; at hBGT1 wt (setting [2]) it was 20.9 µM. In addition, at hBGT1, the “subtype-selectivity for hBGT1 over the other hGATs” value (from here on “subtype-selectivity for hBGT1”) is given as at least 29 times.
Consider `NC1=NCC(C(=O)O)CN1` (stereo not shown) [ATPCA, 2-amino-1,4,5,6-tetrahydropyrimidine-5-carboxylic acid, reference compound], for which the IC50 on hBGT1 E52A (IC50 BGT1 E52A) is 4.4 µM; on hBGT1 wt (read-out: IC50 BGT1 wt), 11 µM; on hBGT1 wt (setting [2]), 10.5 µM.
For the compound `NC1=NCC(C(=O)O)CC1` (stereo not shown) [compound 2, 6-amino-2,3,4,5-tetrahydropyridine-3-carboxylic acid, reference compound], the IC50 against hBGT1 E52A (IC50 BGT1 E52A) was 31 µM; at hBGT1 E52A (pIC50 ± S.E.M. BGT1 E52A), 30.2 µM; at hGAT2, above 1000 µM; at hBGT1 (read-out: IC50 hBGT1), below 100 µM; at hBGT1 (setting [1]) it was 12.9 µM; on hBGT1 wt (read-out: IC50 BGT1 wt), 52 µM. Further, the IC50 on hBGT1 wt (setting [2]) was 51.3 µM. Further, at hBGT1, the “decrease of hBGT1 inhibitory potency compared to ATPCA” value (“decrease of hBGT1 inhibitory potency” below) is given as “fivefold”.
With `CCN1CC(C(=O)O)CN=C1N.Cl` (stereo not shown) [compound 3], the IC50 on hBGT1 E52A (IC50 BGT1 E52A) was 74 µM; on hBGT1 E52A (pIC50 ± S.E.M. BGT1 E52A), 72.4 µM; at hGAT2, above 1000 µM; on hBGT1 (read-out: IC50 hBGT1), 86 µM; on hBGT1 wt (read-out: IC50 BGT1 wt), 406 µM; on hBGT1 wt (setting [2]) it was 398 µM. Also, at hBGT1, the “decrease of hBGT1 inhibitory potency” value was 20–65 fold and 34 fold. Further, the “subtype-selectivity for hBGT1” value on hBGT1 is listed as “at least 12 times”.
On to `Cl.NC1=NCC(C(=O)O)CN1Cc1ccccc1` (stereo not shown) [compound 4], for which the IC50 is 90 µM against hBGT1 E52A (IC50 BGT1 E52A); 87.1 µM against hBGT1 E52A (pIC50 ± S.E.M. BGT1 E52A); 105 µM on hGAT2; 163 µM on hBGT1 (read-out: IC50 hBGT1); 354 µM at hBGT1 wt (read-out: IC50 BGT1 wt); 324 µM at hBGT1 wt (setting [2]). In addition, the “decrease of hBGT1 inhibitory potency” value at hBGT1 is given as 20–65 fold.
Regarding `NC1=NC=C(C(=O)O)CN1.O=C(O)C(F)(F)F` [compound 11], the IC50 is 247 µM at hBGT1 E52A (IC50 BGT1 E52A); 240 µM at hBGT1 E52A (pIC50 ± S.E.M. BGT1 E52A); above 1000 µM at hGAT2; 48 µM on hBGT1 (read-out: IC50 hBGT1); 46.8 µM on hBGT1 (setting [1]); 220 µM on hBGT1 wt (read-out: IC50 BGT1 wt). In addition, the “decrease of hBGT1 inhibitory potency” value at hBGT1 is given as 19 fold. At hBGT1, the “subtype-selectivity for hBGT1” value is on record as at least 21 times.
